# Test results: patent US20240327353A1
# Like-named read-outs stand apart in the source and are kept apart here.
# Columns and labels:
# [1] = target: T1, 5-HT2CR (Homo sapiens, UniProt P28335); test: biochemical
# T1 sequence (P28335 33-458): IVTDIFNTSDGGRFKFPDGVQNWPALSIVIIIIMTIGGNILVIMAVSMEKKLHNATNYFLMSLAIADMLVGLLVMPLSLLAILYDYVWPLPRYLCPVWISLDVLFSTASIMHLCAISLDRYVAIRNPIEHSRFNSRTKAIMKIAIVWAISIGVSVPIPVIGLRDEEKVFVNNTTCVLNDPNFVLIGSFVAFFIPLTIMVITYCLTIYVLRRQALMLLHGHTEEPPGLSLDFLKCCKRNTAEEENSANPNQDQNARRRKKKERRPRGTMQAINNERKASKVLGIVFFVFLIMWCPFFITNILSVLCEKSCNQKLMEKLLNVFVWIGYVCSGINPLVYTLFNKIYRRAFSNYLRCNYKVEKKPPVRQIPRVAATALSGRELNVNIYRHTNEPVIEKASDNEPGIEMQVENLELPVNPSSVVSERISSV
# Procedure: (§2) All cells were grown adherently in 10 cm plates in a humidified incubator kept at 37° C. and 5% carbon dioxide. […] Transient transfections were used to express 5-HT2A, 5-HT2C, α1A- or α1B-adrenergic receptors, whereas 5-HT7(a)Rs were stably expressed in HEK293 cells. H1Rs were transiently expressed, and D2Rs were stably expressed in CHO cells.
# (§3) Transient transfections were performed on cells in the log growth phase (70-90% confluence). […] Each solution was mixed by inversion before combining, mixed by inversion again, and incubated at 37° C. for 30 minutes. Cells were then washed with 1 mL 1×PBS, followed by the gentle addition of 5 mL of transfection cocktail and 5 mL of cell culture medium with 5% (final) dialyzed FBS. Transfections were performed for 48 hours.
# (§4) The affinity of ligands was determined via radioligand binding techniques using human recombinant receptors expressed in mammalian clonal cells.
# (§5) Saturation binding experiments were performed on membranes expressing 5-HT2A, 5-HT2B, 5-HT2C, or H1Rs in triplicate across 8 concentrations. Competition binding assays were performed in at least triplicate with approximate Kd concentrations of radioligand. Total and nonspecific binding were determined in octet. […] Serial dilutions of unlabeled compound were made in assay buffer at 2.5× the final concentration using 10 mM DMSO stocks (final [DMSO]≤1%). Assays were terminated using rapid filtration via Whatman GF/B Fired Filters (Brandel Inc., Gaithersburg, MD) soaked in 0.3% (w/v) PEI, using an automated Tomtec Harvester 96 (Hamden, CT).
# (§6) Filters were washed with 50 mM Tri-HCl (pH=7.4, 4° C.) before being oven dried and placed into scintillation vials containing 1 mL SX18-4 ScintiVerse^TM BD Cocktail (Fisher Chemical, Fair Lawn, NJ).
# (§7) GraphPad Prism (La Jolla, CA) version 9.1.1 was used to analyze all experimental data in this work. To analyze data from saturation binding studies, the radioligand counts per minute (cpm) were normalized to fmol/mg protein bound and then fit the data to a ‘specific binding with hill slope’ model. For competitive radioligand displacement studies, a baseline correction was performed by subtracting the mean nonspecific binding value from the radioligand binding values with and without competitor to obtain specific binding values. Specific binding values were then normalized such that total binding in the absence of competitor represented 100% radioligand binding, and the radioactivity associated with each concentration of competitor was a percentage of total binding. The normalized data was then fit to the ‘one-site Fit Ki’ nonlinear regression model.
# [2] = target: T2, H1R (Homo sapiens, UniProt P35367); test: Radioligand binding (competitive displacement and saturation), cell membranes
# T2 construct: host or cells: CHO, transient
# Procedure: (§1) Transfections were performed for 48 hours.
# [3] = target: T3, 5-HT2AR (Homo sapiens, UniProt P28223); test: as above; details: for Ki: pKi 5-HT2AR
# T3 construct: host or cells: HEK293, transient
# Procedure: as §1
# [4] = target: 5-HT2BR (Homo sapiens, UniProt P41595); test: biochemical
# Procedure: as §2, §3, §4, §5, §6, §7
# [5] = pKi H1R, displacement of [^3H]mepyramine, mean of n independent experiments, ± SD where n ≥ 5
# [6] = displacement of [^3H]ketanserin, mean of n independent experiments, ± SD where n ≥ 5
# T2 sequence (P35367 whole entry): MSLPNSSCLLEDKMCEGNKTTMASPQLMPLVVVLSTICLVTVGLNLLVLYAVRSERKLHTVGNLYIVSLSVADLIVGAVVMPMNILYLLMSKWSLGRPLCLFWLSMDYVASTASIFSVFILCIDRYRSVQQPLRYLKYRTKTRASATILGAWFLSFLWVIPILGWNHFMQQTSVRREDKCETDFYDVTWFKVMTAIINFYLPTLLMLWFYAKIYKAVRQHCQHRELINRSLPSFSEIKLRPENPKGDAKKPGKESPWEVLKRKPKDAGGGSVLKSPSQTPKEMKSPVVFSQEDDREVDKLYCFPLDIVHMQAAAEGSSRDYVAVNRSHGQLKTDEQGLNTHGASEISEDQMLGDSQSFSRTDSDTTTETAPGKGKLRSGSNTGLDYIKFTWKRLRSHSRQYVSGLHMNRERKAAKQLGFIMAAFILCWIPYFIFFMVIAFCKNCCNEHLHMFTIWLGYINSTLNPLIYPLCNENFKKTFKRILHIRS
# Chain of 5-HT2BR (P41595 whole entry): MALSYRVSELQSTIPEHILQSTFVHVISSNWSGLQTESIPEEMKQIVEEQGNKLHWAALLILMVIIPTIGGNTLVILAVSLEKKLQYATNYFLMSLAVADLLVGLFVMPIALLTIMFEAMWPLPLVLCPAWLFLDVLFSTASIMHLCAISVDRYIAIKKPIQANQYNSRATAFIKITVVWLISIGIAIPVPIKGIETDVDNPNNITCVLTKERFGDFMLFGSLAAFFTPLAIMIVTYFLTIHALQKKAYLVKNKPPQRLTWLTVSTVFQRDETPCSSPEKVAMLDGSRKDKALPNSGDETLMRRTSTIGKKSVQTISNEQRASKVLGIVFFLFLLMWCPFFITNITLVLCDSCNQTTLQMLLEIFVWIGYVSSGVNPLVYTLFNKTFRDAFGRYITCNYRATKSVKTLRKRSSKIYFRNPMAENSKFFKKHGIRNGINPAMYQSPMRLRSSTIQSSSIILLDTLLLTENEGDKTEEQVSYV
# T3 sequence (P28223 whole entry): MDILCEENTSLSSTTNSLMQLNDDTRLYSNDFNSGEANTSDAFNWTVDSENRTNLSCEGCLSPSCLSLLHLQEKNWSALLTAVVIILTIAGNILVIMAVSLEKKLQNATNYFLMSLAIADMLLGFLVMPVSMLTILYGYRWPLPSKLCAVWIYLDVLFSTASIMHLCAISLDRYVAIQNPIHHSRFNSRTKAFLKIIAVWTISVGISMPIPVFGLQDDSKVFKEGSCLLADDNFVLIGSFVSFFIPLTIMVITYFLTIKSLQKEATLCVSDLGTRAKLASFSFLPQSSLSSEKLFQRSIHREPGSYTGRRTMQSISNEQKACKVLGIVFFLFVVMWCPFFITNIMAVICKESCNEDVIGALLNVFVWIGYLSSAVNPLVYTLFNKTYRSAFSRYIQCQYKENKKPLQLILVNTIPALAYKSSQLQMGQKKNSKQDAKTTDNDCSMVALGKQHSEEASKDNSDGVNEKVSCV
"Ki [2, 5] [nM]",SMILES,Ki [1] [nM],Ki [4] [nM],"Ki [3, 6] [nM]",also measured
,"CN(C)[C@@H]1Cc2ccccc2[C@H](c2cccc(-c3cccs3)c2)C1 (single isomer, unassigned) [(2R,4R)-3c, Cis-4-(3-(thiophen-2-yl)phenyl)-N,N-dimethyl-1,2,3,4-tetrahydronaphthalen-2-amine]",24,105,,Ki ([2]; read-out: pKi H1R (converted)): 234 nM; selectivity for 5-HT2ARs over 5-HT2B and H1Rs ([3]; one figure for both off-targets): 30-60 fold; Ki [3]: 3.55 nM
14.5,"CN(C)C1Cc2ccccc2C(c2cccc(-c3ccc(Cl)cc3)c2)C1 [(2R,4S)-2j, Trans-4-(4′-chloro-[1,1′-biphenyl]-3-yl)-N,N-dimethyl-1,2,3,4-tetrahydronaphtha-len-2-amine]",7.08,,5.37,
,"CN(C)[C@@H]1Cc2ccccc2[C@H](c2cccc(Cl)c2)C1 (single isomer, unassigned) [(2R,4R)-3b, Cis-4-(3-chlorophenyl)-N, N-dimethyl-1,2,3,4-tetrahydronaphthalen-2-amine]",,115,,
,"CN(C)[C@@H]1Cc2ccccc2[C@H](c2cccc(-c3ccc(Cl)cc3)c2)C1 (single isomer, unassigned) [(2S,4S)-3j, Cis-4-(4′-chloro-[1,1′-biphenyl]-3-yl)-N,N-dimethyl-1,2,3,4-tetrahydronaphthalen-2-amine]",97.7,,63.1,
,"CN(C)[C@@H]1Cc2ccccc2[C@H](c2cccc(-c3ccc(Cl)cc3)c2)C1 (single isomer, unassigned) [(2R,4R)-3j, Cis-4-(4′-chloro-[1,1′-biphenyl]-3-yl)-N,N-dimethyl-1,2,3,4-tetrahydronaphthalen-2-amine]",9.33,,1.7,pKi H1R [2]: 7.84^(2) 7.89-7.78 8.84^(3) 8.86-8.82 ND 6.40^(3) 6.41-6.40
,"CN(C)[C@@H]1Cc2ccccc2[C@@H](c2cccc(-c3cccc(F)c3)c2)C1 [(2S,4R)-2h, Trans-4-(3′-fluoro-[1,1′-biphenyl]-3-yl)-N,N-dimethyl-1,2,3,4-tetrahydronaphtha-len-2-amine]",,,,"pKi H1R ([2]; displacement of [^3H]mepyramine, mean of n independent experiments, ± SD where n ≥ 5): 8.96; pKi 5-HT2AR [3, 6]: 9.22"
49,"CN(C)C1Cc2ccccc2C(c2cccc(-c3cccc(F)c3)c2)C1 [(2R,4S)-2h, Trans-4-(3′-fluoro-[1,1′-biphenyl]-3-yl)-N,N-dimethyl-1,2,3,4-tetrahydronaphtha-len-2-amine]",,,,"pKi 5-HT2AR [3, 6]: 8.03"
,"CN(C)[C@@H]1Cc2ccccc2[C@H](c2cccc(F)c2)C1 (single isomer, unassigned) [(2S,4S)-3b′, Cis-4-(3-fluorophenyl)-N, N-dimethyl-1,2,3,4-tetrahydronaphthalen-2-amine]",437,912,,
1.45,"CN(C)[C@@H]1Cc2ccccc2[C@@H](c2cccc(-c3ccc(Cl)cc3)c2)C1 [(2S,4R)-2j, Trans-4-(4′-chloro-[1,1′-biphenyl]-3-yl)-N,N-dimethyl-1,2,3,4-tetrahydronaphtha-len-2-amine]",4.9,,0.288,
,"CN(C)C1Cc2ccccc2C(c2cccc(-c3ccccc3F)c2)C1 (single isomer, unassigned) [(2R,4S)-2g, Trans-4-(2′-fluoro-[1,1′-biphenyl]-3-yl)-N, N-dimethyl-1,2,3,4-tetrahydronaphtha-len-2-amine]",,43.7,30.9,pKi H1R [2]: 6.93^(2) 7.02-6.84 8.75^(4) 9.1-8.62 ND 6.54^(2) 6.67-6.40
,"CN(C)[C@@H]1Cc2ccccc2[C@H](c2cccc(Br)c2)C1 (single isomer, unassigned) [(2R,4R)-3a, Cis-4-(3-bromophenyl)-N, N-dimethyl-1,2,3,4-tetrahydronaphthalen-2-amine]",57.5,85.1,31.6,
50.1,"CN(C)[C@@H]1Cc2ccccc2[C@H](c2cccc(-c3ccco3)c2)C1 (single isomer, unassigned) [(2R,4R)-3d, Cis-4-(3-(furan-2-yl)phenyl)-N,N-dimethyl-1,2,3,4-tetrahydronaphthalen-2-amine]",,,,
3.39,"CN(C)[C@@H]1Cc2ccccc2[C@@H](c2cccc(-c3ccco3)c2)C1 (single isomer, unassigned) [(2S,4R)-2d, Trans-4-(3-(furan-2-yl)phenyl)-N,N-dimethyl-1,2,3,4-tetrahydronaphthalen-2-amine]",,,,
,"CN(C)[C@@H]1Cc2ccccc2[C@@H](c2cccc(-c3ccccc3)c2)C1 (single isomer, unassigned) [(2S,4R)-2f, Trans-4-([1,1′-biphenyl]-3-yl)-N,N-dimethyl-1,2,3,4-tetrahydronaphthalen-2-amine]",3.31,52.5,,
,"CN(C)[C@@H]1Cc2ccccc2[C@H](c2cccc(-c3ccccc3)c2)C1 (single isomer, unassigned) [(2R,4R)-3f, Cis-4-([1,1′-biphenyl]-3-yl)-N,N-dimethyl-1,2,3,4-tetrahydronaphthalen-2-amine]",26.9,117,,
,"CN(C)[C@@H]1Cc2ccccc2[C@H](c2cccc(-c3cccs3)c2)C1 (single isomer, unassigned) [(2S,4S)-3c, Cis-4-(3-(thiophen-2-yl)phenyl)-N,N-dimethyl-1,2,3,4-tetrahydronaphthalen-2-amine]",224,89.1,,Ki ([2]; read-out: pKi H1R (converted)): 437 nM; Ki [3]: 151 nM
,"CN(C)[C@@H]1Cc2ccccc2[C@H](c2cccc(-c3cccc(F)c3)c2)C1 (single isomer, unassigned) [(2S,4S)-3h, Cis-4-(3′-fluoro-[1,1′-biphenyl]-3-yl)-N,N-dimethyl-1,2,3,4-tetrahydronaphthalen-2-amine]",,,,"pKi H1R [2]: 7.31 ^(2) 7.39-7.23 8.96^(3) 9.11-8.88 6.20^(2) 6.23-6.18 6.30 ± 0.10^(5) 6.42-6.14; pKi 5-HT2AR [3, 6]: 7.69"
,"CN(C)[C@@H]1Cc2ccccc2[C@H](c2cccc(F)c2)C1 (single isomer, unassigned) [(2R,4R)-3b′, Cis-4-(3-fluorophenyl)-N, N-dimethyl-1,2,3,4-tetrahydronaphthalen-2-amine]",251,447,,
,"CN(C)[C@@H]1Cc2ccccc2[C@@H](c2cccc(-c3ccccc3)c2)C1 (single isomer, unassigned) [(2R,4S)-2f, Trans-4-([1,1′-biphenyl]-3-yl)-N,N-dimethyl-1,2,3,4-tetrahydronaphthalen-2-amine]",69.2,112,,
,"CN(C)[C@@H]1Cc2ccccc2[C@H](c2cccc(Cl)c2)C1 (single isomer, unassigned) [(2S,4S)-3b, Cis-4-(3-chlorophenyl)-N, N-dimethyl-1,2,3,4-tetrahydronaphthalen-2-amine]",,389,,

SMILES,"Ki [2, 5] [nM]",Ki [1] [nM],Ki [4] [nM],"Ki [3, 6] [nM]",also measured
"CN(C)C1Cc2ccccc2C(c2cccc(-c3ccccc3F)c2)C1 (single isomer, unassigned) [(2S,4R)-2g, Trans-4-(2′-fluoro-[1,1′-biphenyl]-3-yl)-N, N-dimethyl-1,2,3,4-tetrahydronaphtha-len-2-amine]",1.78,,81.3,0.813,
"CN(C)[C@@H]1Cc2ccccc2[C@@H](c2cccc(-c3ccncc3)c2)C1 (single isomer, unassigned) [(2S,4R)-2e, Trans-4-(3-(pyridin-4-yl)phenyl)-N,N-dimethyl-1,2,3,4-tetrahydronaphthalen-2-amine]",1.38,42.7,,7.41,
